Data: BigSolDB 2.1

Cc1nc2n(c(=O)c1CCN1CCC(c3noc4cc(F)ccc34)CC1)CCCC2
solubility (mole fraction)
Settings | 278.15 K | 283.15 K | 288.15 K | 293.15 K | 298.15 K | 303.15 K | 308.15 K | 313.15 K | 318.15 K | 323.15 K
in acetone | 0.00085 | 0.00095 | 0.00127 | 0.00143 | 0.00175 | 0.00219 | 0.00284 | 0.00336 | 0.00417 | 0.00507
in cumene | 0.00122 | 0.00147 | 0.00207 | 0.00219 | 0.0026 | 0.00309 | 0.00376 | 0.00481 | 0.00552 | 0.0066
in ethanol | 0.00096 | 0.00108 | 0.00131 | 0.00153 | 0.00201 | 0.00248 | 0.0033 | 0.00415 | 0.0051 | 0.00677
in ethyl acetate | 0.00116 | 0.00128 | 0.00167 | 0.00185 | 0.00216 | 0.00263 | 0.00331 | 0.00397 | 0.00485 | 0.0058
in isopropanol | 0.00036 | 0.00046 | 0.0006 | 0.0007 | 0.00103 | 0.00136 | 0.00203 | 0.00253 | 0.0032 | 0.00447
in methanol | 0.00202 | 0.0023 | 0.00272 | 0.00329 | 0.00396 | 0.00487 | 0.00615 | 0.0077 | 0.0099 | 0.0128
in n-butanol | 0.00152 | 0.00173 | 0.0022 | 0.00263 | 0.00347 | 0.00443 | 0.00593 | 0.00753 | 0.00963 | 0.0124
in n-propanol | 0.00139 | 0.00155 | 0.00197 | 0.00238 | 0.00305 | 0.00381 | 0.00517 | 0.00651 | 0.00839 | 0.0109
in toluene | 0.0038 | 0.00418 | 0.00521 | 0.00559 | 0.00667 | 0.008 | 0.00998 | 0.0117 | 0.014 | 0.0167
